Data reported in ChEMBL document CHEMBL6071133, “Discovery of novel penetrating peptides able to target human leukemia and lymphoma for enhanced PROTAC delivery” (Eur J Med Chem, 2024).
Active and inactive are the calls of the source. No cut-off for these calls is given here.

Columns and labels:
[1] = Stability of the compound in fetal bovine serum assessed as parent compound remaining measured after 36 hrs by HPLC-MS analysis; type: ADME, cell-free, Bos taurus; settings: cattle, read-out: Stability
[2] = Drug uptake in human K562 cells assessed as increase in fluorescence intensity at 5 umol/L pretreated with endocytosis inhibitor, nystatin for 0.5 hrs followed by incubation with compound for 2 hrs by FACS analysis; type: ADME, cell-based; settings: k562, 2 h, 5 µM, dose 5 µmol/L
[3] = Drug uptake in human CCRF-CEM cells assessed as perinuclear distribution and colocalization with nucleus at 10 umol/L incubated for 2 hrs by confocal laser microscopy; type: ADME, cell-based; settings: 10 µM, dose 10 µmol/L
[4] = Drug uptake in human KU812 cells assessed as membrane permeability by measuring increase in fluorescence intensity at 5 umol/L incubated for 2 hrs by flow cytometry relative to THP-1 cells; type: ADME, cell-based; settings: ku812, 2 h, 5 µM, dose 5 µmol/L
[5] = Drug uptake in human KU812 cells assessed as increase in fluorescence intensity at 1 to 10 uM incubated for 2 hrs by flow cytometry; type: ADME, cell-based; settings: ku812, 2 h, dose 1-10 µM
[6] = system: K562; assay: Induction of apoptosis in human K562 cells assessed as early apoptotic cells at PROTAC to compound concentration ratio of 1:5 incubated for 48 hrs in presence of 3 umol/L IMA-PROTAC by AnnexinV-FITC/PI staining based flow cytometry (reference value: 0.03%); type: functional
[7] = Stability of the compound in fetal bovine serum assessed as parent compound remaining measured after 12 hrs by HPLC-MS analysis; type: ADME, cell-free, Bos taurus; settings: cattle, read-out: Stability
[8] = Drug uptake in human K562 cells assessed as fluorescence intensity at 5 umol/L pretreated with endocytosis inhibitor, chlorpromazine for 0.5 hrs followed by incubation with compound for 2 hrs by FACS analysis; type: ADME, cell-based; settings: k562, 2 h, 5 µM, dose 5 µmol/L
[9] = Interaction with IMA-PROTAC assessed as induction of assembly formation by transmission electron microscopy; type: physicochemical
[10] = Interaction with IMA-PROTAC assessed as induction of formation of micelle cluster with uniform and distinct spherical morphology by transmission electron microscopy; type: physicochemical
[11] = Drug uptake in human KU812 cells assessed as membrane penetration by measuring increase in fluorescence intensity at 5 umol/L incubated for 2 hrs by flow cytometry relative to C9C; type: ADME, cell-based; settings: ku812, 2 h, 5 µM, dose 5 µmol/L
[12] = Drug uptake in human K562 cells assessed as membrane penetration by measuring increase in fluorescence intensity at 5 umol/L incubated for 2 hrs by flow cytometry relative to C9C; type: ADME, cell-based; settings: k562, 2 h, 5 µM, dose 5 µmol/L
[13] = system: K562; assay: (§1) Increase in membrane permeability of IMA-PROTAC in human K562 cells assessed as potentiation of IMA-PROTAC-induced inhibition of STAT5 phosphorylation at PROTAC to compound concentration ratio of 1:3 incubated for 48 hrs in presence of 3 umol/L IMA-PROTAC by western blot analysis; type: functional, cell-based
[14] = system: K562; assay: Induction of apoptosis in human K562 cells assessed as viable cells at PROTAC to compound concentration ratio of 1:5 incubated for 48 hrs in presence of 3 umol/L IMA-PROTAC by AnnexinV-FITC/PI staining based flow cytometry (reference value: 99.85%); type: functional
[15] = Drug uptake in human CCRF-CEM cells assessed as increase in fluorescence intensity at 1 to 10 uM incubated for 2 hrs by flow cytometry; type: ADME, cell-based; settings: dose 1-10 µM
[16] = system: K562; assay: as §1, with “Bcr-Abl degradation” for “inhibition of STAT5 phosphorylation”, “1:5 pretreated with proteasome inhibitor, MG132 and carfilzomib followed by incubation with compound” for “1:3 incubated”; type: functional, cell-based
[17] = Drug uptake in human K562 cells assessed as membrane permeability by measuring increase in fluorescence intensity at 5 umol/L incubated for 2 hrs by flow cytometry relative to THP-1 cells; type: ADME, cell-based; settings: k562, 2 h, 5 µM, dose 5 µmol/L
[18] = Drug uptake in human K562 cells assessed as perinuclear distribution and colocalization with nucleus at 10 umol/L incubated for 2 hrs by confocal laser microscopy; type: ADME, cell-based; settings: k562, 2 h, 10 µM, dose 10 µmol/L
[19] = system: K562; assay: Increase in membrane permeability of IMA-PROTAC in human K562 cells assessed as potentiation of IMA-PROTAC-induced Bcr-Abl degradation at PROTAC to compound concentration ratio of 1:3 incubated for 48 hrs in presence of 3 umol/L IMA-PROTAC by western blot analysis; type: functional, cell-based
[20] = Drug uptake in human CCRF-CEM cells assessed as increase in fluorescence intensity at 5 umol/L measured for 5 to 240 mins by flow cytometry; type: ADME, cell-based; settings: 5 µM, TDE = time-dependent effect, time 5-240 min, dose 5 µmol/L
[21] = Drug uptake in human KU812 cells assessed as perinuclear distribution and colocalization with nucleus at 10 umol/L incubated for 2 hrs by confocal laser microscopy; type: ADME, cell-based; settings: ku812, 2 h, 10 µM, dose 10 µmol/L
[22] = system: K562; assay: Induction of apoptosis in human K562 cells assessed as necrotic cells at PROTAC to compound concentration ratio of 1:5 incubated for 48 hrs in presence of 3 umol/L IMA-PROTAC by AnnexinV-FITC/PI staining based flow cytometry (reference value: 0.1%); type: functional
[23] = Drug uptake in human K562 cells assessed as increase in fluorescence intensity at 1 to 10 umol/L incubated for 2 hrs by cell imaging based fluorescence microscopic analysis; type: ADME; settings: k562, 2 h, dose 1-10 µmol/L
[24] = Drug uptake in human THP-1 cells assessed as increase in fluorescence intensity at 10 umol/L incubated for 2 hrs by cell imaging based fluorescence microscopic analysis; type: ADME; settings: thp-1, 2 h, 10 µM, dose 10 µmol/L
[25] = Cytotoxicity against human KU812 cells assessed as cell viability at 0.01 to 100 uM incubated for 48 hrs by MTT assay; type: toxicity, cell-based; settings: dose 0.01-100 µM, read-out: Activity
[26] = system: K562; assay: Induction of cell cycle arrest in human K562 cells assessed as accumulation of cells at G2/M phase at PROTAC to compound concentration ratio of 1:5 incubated for 48 hrs in presence of 3 umol/L IMA-PROTAC by propidium iodide staining based flow cytometry; type: functional
[27] = Cytotoxicity against human CCRF-CEM cells assessed as cell viability at 0.01 to 100 uM incubated for 48 hrs by MTT assay; type: toxicity, cell-based; settings: dose 0.01-100 µM, read-out: Activity
[28] = system: K562; assay: Induction of apoptosis in human K562 cells assessed as late apoptotic cells at PROTAC to compound concentration ratio of 1:5 incubated for 48 hrs in presence of 3 umol/L IMA-PROTAC by AnnexinV-FITC/PI staining based flow cytometry (reference value: 0.01%); type: functional
[29] = Cytotoxicity against human K562 cells assessed as cell viability at 0.01 to 100 uM incubated for 48 hrs by MTT assay; type: toxicity, cell-based; settings: dose 0.01-100 µM, read-out: Activity
[30] = system: K562; assay: Potentiation of IMA-PROTAC-induced cytotoxicity against human K562 cells assessed as inhibition of cell growth at compound: IMA-PROTAC concentration ratio of 5:1 incubated for 48 hrs in presence of 3 umo/L IMA-PROTAC by MTT assay; type: functional, cell-based
[31] = Increase in membrane permeation of IMA-PROTAC in human K562 cells assessed as increase in intracellular content of IMA-PROTAC incubated for 3 hrs by HPLC-MRM-MS analysis relative to control; type: functional

CC(C)C[C@H](NC(=O)[C@H](Cc1csc2ccccc12)NC(=O)[C@@H](Cc1ccccc1)NC(=O)[C@H](Cc1ccccc1)NC(=O)CNC(=O)[C@@H](N)CS)C(=O)N[C@@H](CCCNC(=N)N)C(=O)N[C@@H](CO)C(=O)N[C@@H](CS)C(=O)O
remaining at 36 h [1]: 55% | Drug uptake [2]: Active | Drug uptake [3]: Active | fold change (FC) [4]: 4 | Drug uptake [5]: Dose-Dependent Effect | Activity [6]: 22.82% | remaining at 12 h [7]: 80% | Drug uptake [8]: Not Active | Activity [9]: Not Active | Activity [10]: Not Active | fold change (FC) [11]: 4.45 | fold change (FC) [12]: 4.03 | Activity [13]: Active | Activity [14]: 63.19% | Drug uptake [15]: Dose-Dependent Effect | Activity [16]: inactive | fold change (FC) [17]: 8.8 | Drug uptake [18]: Active | Activity [19]: Active | Drug uptake [20]: Tde | Drug uptake [21]: Active | Activity [22]: 0% | Drug uptake [23]: Active | Drug uptake [24]: Active | viability at 48 h, up to 100 µM [25]: > 75% | Activity [26]: Active | viability at 48 h, up to 100 µM [27]: > 75% | Activity [28]: 13.98% | viability at 48 h, up to 100 µM [29]: > 75% | Activity [30]: inactive | fold change (FC) [31]: 1.72
